Source: patent publication US5635593A (priority 1995, dated 1997)
Square brackets hold non-standard residues; d marks the D form. Peptide text beside a SMILES is read from it. Oic = O=C(O)[C@@H]1C[C@@H]2CCCC[C@@H]2N1; Hyp = O=C(O)[C@@H]1C[C@@H](O)CN1; dTic = O=C(O)[C@H]1Cc2ccccc2CN1; 2Thi = N[C@@H](Cc1cccs1)C(=O)O

Experiments:
BK2 -receptor = target: T1, BK2 -receptor (Rattus norvegicus, UniProt P25023); assay: rat uterus (RU) in vitro, antagonism of BK; conditions: against BK
T1 construct: guinea-pig ileum (GPI), rat uterus (RU) and rabbit jugular vein (RJV); from tissue; host or cells: rat uterus
T1 sequence (P25023 1-396): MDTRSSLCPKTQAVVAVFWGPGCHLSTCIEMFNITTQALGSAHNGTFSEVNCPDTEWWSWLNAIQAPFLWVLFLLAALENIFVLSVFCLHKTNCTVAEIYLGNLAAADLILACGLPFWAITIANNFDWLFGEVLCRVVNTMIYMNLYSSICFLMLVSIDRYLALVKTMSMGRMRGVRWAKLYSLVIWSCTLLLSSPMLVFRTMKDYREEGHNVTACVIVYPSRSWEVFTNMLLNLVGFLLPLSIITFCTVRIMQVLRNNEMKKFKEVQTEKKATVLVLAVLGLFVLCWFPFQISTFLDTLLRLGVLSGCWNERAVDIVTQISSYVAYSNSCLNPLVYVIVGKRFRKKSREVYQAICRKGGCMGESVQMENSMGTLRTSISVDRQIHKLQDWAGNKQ
Protocol: Thus, in vitro studies were performed on standard assay systems, namely, guinea-pig ileum (GPI), rat uterus (RU) and rabbit jugular vein (RJV). […] The potency of each compound was assessed as a pA2 value according to the method of Arunlakshana & Schild, Br. J. Pharmacol. Chemother., 14:48-58 (1959). The pA2 can be defined as the negative logarithm of the molar concentration of the antagonist in the presence of which the potency of the agonist is reduced two-fold, i.e., twice the amount of agonist is required to produce a given response in the presence of, than in the absence of, the antagonist. A high potency of antagonism is indicated by a high pA2 value. i.e., a low concentration of antagonist is effective.
The percentage recovery (% Rec) was also determined for compounds with respect to each assay.
With respect to duration of activity, it is noted that after exposure to the highest concentration of antagonist, each tissue was washed extensively and then assessed for recovery from the antagonist effect.
Potency in the rat uterus assay was assessed as described above and pA2 values determined.

BK1 receptor [1] = target: T2, BK1 receptor (Oryctolagus cuniculus, UniProt P48748); assay: rabbit aorta in vitro, reversal of des-Arg^9 -BK contraction; parameters: on rabbit aorta (BK1 -receptor) in vitro; from tissue; host or cells: rabbit aorta; conditions: negative log of molar concentration causing 50% reversal of des-Arg^9 -BK (10^-7 M) contraction
T2 sequence (P48748 1-352): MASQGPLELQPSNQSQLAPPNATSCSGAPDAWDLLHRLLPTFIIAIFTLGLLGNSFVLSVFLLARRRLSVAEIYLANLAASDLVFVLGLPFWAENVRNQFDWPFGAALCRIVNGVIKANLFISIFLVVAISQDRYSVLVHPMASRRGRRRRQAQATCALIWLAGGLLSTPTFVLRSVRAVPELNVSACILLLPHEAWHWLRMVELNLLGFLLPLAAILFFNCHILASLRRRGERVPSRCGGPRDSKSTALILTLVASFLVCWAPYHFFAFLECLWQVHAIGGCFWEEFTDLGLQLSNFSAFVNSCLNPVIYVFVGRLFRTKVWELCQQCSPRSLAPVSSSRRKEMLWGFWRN
Protocol: Each antagonist was then added, in a cumulative fashion, on top of the contraction and the negative log of the molar concentration of the antagonist causing a 50% reversal (IC50) of the […] measured.

BK2 receptor = target: T3, BK2 receptor (Oryctolagus cuniculus, UniProt Q28642); assay: blood pressure response to BK2 agonist in LPS-pretreated rabbits; type: in vivo, rabbit; parameters: key to observed antagonist activity BK2, 1 / observed antagonist activity BK2, 3 / observed antagonist activity BK2, 10: +: complete blockade of the blood pressure response to the appropriate agonist; ±: partial blockade; -: no observable effect at the dose indicated; conditions: rabbits given LPS (10 μg) 20 hours before
T3 construct: from tissue; host or cells: whole animal (rabbit, LPS-pretreated), blood pressure response
T3 sequence (Q28642 1-367): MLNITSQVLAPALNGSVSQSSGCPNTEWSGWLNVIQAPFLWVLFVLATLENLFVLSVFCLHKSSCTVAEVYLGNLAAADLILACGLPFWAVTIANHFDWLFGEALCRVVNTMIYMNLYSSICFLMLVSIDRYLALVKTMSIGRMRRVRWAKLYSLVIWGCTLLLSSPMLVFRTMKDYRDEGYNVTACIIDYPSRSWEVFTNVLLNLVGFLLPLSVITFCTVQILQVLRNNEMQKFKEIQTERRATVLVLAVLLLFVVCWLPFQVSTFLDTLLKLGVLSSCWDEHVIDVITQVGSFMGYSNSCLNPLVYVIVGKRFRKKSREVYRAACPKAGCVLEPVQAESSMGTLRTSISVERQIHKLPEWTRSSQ
Text: (§1) That heterodimeric constructs block the activities attributable to two different receptor populations simultaneously when administered to an intact animal has been known using a standard assay of BK2 and BK1 receptor activity (see, deBlois, Bouthillier, and Marceau, Brit. J. Pharm., 103, 1057-1066, 1991). In normal rabbits, no changes in systemic arterial blood pressure can be detected in response to challenges with BK1 receptor agonists. There is, however, a predictable and reproducible response to BK2 agonists constituatively present. After stimulation with LPS BK1 receptor activity will develop over time such that profound responses to doses of BK1 agonists that were previously inconsequential in nature are observed after a 3-4 hour period. Responses to BK2 agonists are unchanged in these animals. At this point, one can test directly the ability to block both BK1 and BK2 mediated reductions in systemic blood pressure simultaneously with a heterodimeric antagonist.
(§2) FIGS. 8a, b and c comprise actual blood pressure traces from a series of experiments designed to illustrate the ability of a representative heterodimer (CP-0364) to block both BK1 - and BK2 - mediated hypotensive responses simultaneously.
(§3) The expected antagonist activity is based on the data summarized in Tables K and L. The in vivo experimental data reported are qualitative measurements of antagonist activity at three different doses (1, 3 and 10 μg kg^-1 min^-1) in rabbits given a sub-lethal dose of LPS (10 μg), 20 hours before initiation of the experiment.

BK1 receptor [2] = target: T2, BK1 receptor; assay: blood pressure response to BK1 agonist in LPS-pretreated rabbits; type: in vivo, rabbit; parameters: from tissue; host or cells: whole animal (rabbit, LPS-pretreated), blood pressure response; key to observed antagonist activity BK1, 1 / observed antagonist activity BK1, 3 / observed antagonist activity BK1, 10: +: complete blockade of the blood pressure response to the appropriate agonist; ±: partial blockade; -: no observable effect at the dose indicated; conditions: rabbits given LPS (10 μg) 20 hours before
Text: as §1, §2, §3

Compound	pA2 rat uterus (BK2) (BK2 -receptor)	BK1 rabbit aorta IC50 (BK1 receptor [1])	other results
CC(C)C[C@H](NC(=O)[C@@H]1CCCN1C(=O)[C@H](CO)NC(=O)[C@H](Cc1ccccc1)NC(=O)CNC(=O)[C@@H]1C[C@@H](O)CN1C(=O)[C@@H]1CCCN1C(=O)[C@H](CS)NC(=O)[C@@H](N)CCCCN)C(=O)O [CP-0374, K--C--P--J--G--F--S--P--L] (HELM PEPTIDE1{K.C.P.[Hyp].G.F.S.P.L}$$$$V2.0; N-terminus and C-terminus assumed)	no measurable activity	6.5 ± 0.3	
N=C(N)NCCC[C@@H](N)C(=O)N[C@@H](CCCNC(=N)N)C(=O)N1CCC[C@H]1C(=O)N1C[C@H](O)C[C@H]1C(=O)NCC(=O)N[C@@H](Cc1cccs1)C(=O)N[C@@H](CO)C(=O)N1Cc2ccccc2C[C@@H]1C(=O)N1[C@H](C(=O)O)C[C@@H]2CCCC[C@@H]21 [CP-0345, D R--R--P--J--G--Thi--S--D Tic--Oic] (H-[dR]RP[Hyp]G[2Thi]S[dTic][Oic]-OH; N-terminus and C-terminus assumed)	7.6 ± 0.4	7.1 ± 0.1	observed antagonist activity BK2, 1 (BK2 receptor; 1 μg kg^-1 min^-1): -; observed antagonist activity BK2, 10 (BK2 receptor; 10 μg kg^-1 min^-1): +; observed antagonist activity BK1, 1 (BK1 receptor [2]; 1 μg kg^-1 min^-1): -; observed antagonist activity BK1, 3 (BK1 receptor [2]; 3 μg kg^-1 min^-1): +; observed antagonist activity BK1, 10 (BK1 receptor [2]; 10 μg kg^-1 min^-1): +
CC(C)C[C@H](NC(=O)[C@@H](Cc1ccccc1)NC(=O)[C@H](CO)NC(=O)[C@H](Cc1ccccc1)NC(=O)CNC(=O)[C@@H]1C[C@@H](O)CN1C(=O)[C@@H]1CCCN1C(=O)[C@H](CCCNC(=N)N)NC(=O)[C@H](N)CCCNC(=N)N)C(=O)O [CP-0253, D R--R--P--J--G--F--S--D F--L] (HELM PEPTIDE1{[dR].R.P.[Hyp].G.F.S.[dF].L}$$$$V2.0; N-terminus and C-terminus assumed)		6.9 ± 0.1	
N=C(N)NCCC[C@@H](N)C(=O)N[C@@H](CS)C(=O)N1CCC[C@H]1C(=O)N1C[C@H](O)C[C@H]1C(=O)NCC(=O)N[C@@H](Cc1ccccc1)C(=O)N[C@@H](CO)C(=O)N1Cc2ccccc2C[C@@H]1C(=O)N1[C@H](C(=O)O)C[C@@H]2CCCC[C@@H]21 [CP-0363, D R--C--P--J--G--F--S--D Tic--Oic] (HELM PEPTIDE1{[dR].C.P.[Hyp].G.F.S.[O=C([C@H]1Cc2ccccc2CN1[*:1])[*:2]].[O=C(O)[C@@H]1C[C@@H]2CCCC[C@@H]2N1[*:1]]}$$$$V2.0; N-terminus and C-terminus assumed)		6.2 ± 0.3	
CC(C)C[C@H](NC(=O)[C@@H]1CCCN1C(=O)[C@H](CO)NC(=O)[C@H](Cc1ccccc1)NC(=O)CNC(=O)[C@@H]1C[C@@H](O)CN1C(=O)[C@@H]1CCCN1C(=O)[C@H](CCCCN)NC(=O)[C@H](N)CCCNC(=N)N)C(=O)O [CP-0388, D R--K--P--J--G--F--S--P--L] (HELM PEPTIDE1{[dR].K.P.[Hyp].G.F.S.P.L}$$$$V2.0; N-terminus and C-terminus assumed)		6.5 ± 0.1	
CC(C)C[C@H](NC(=O)[C@@H]1CCCN1C(=O)[C@H](CO)NC(=O)[C@H](Cc1ccccc1)NC(=O)CNC(=O)[C@@H]1C[C@@H](O)CN1C(=O)[C@@H]1CCCN1C(=O)[C@H](CCCCNC(=O)CCCCCN1C(=O)CC(SC[C@H](NC(=O)[C@H](Cc2ccccc2)NC(=O)CNC(=O)[C@@H]2C[C@@H](O)CN2C(=O)[C@@H]2CCCN2C(=O)[C@H](CCCNC(=N)N)NC(=O)[C@H](N)CCCNC(=N)N)C(=O)N[C@H](Cc2ccccc2)C(=O)N[C@@H](CC(C)C)C(=O)N[C@@H](CCCNC(=N)N)C(=O)O)C1=O)NC(=O)[C@H](N)CCCNC(=N)N)C(=O)O (stereo partly shown) [CP-0389] (HELM PEPTIDE1{[dR].R.P.[Hyp].G.F.C.[dF].L.R}|PEPTIDE2{[dR].K.P.[Hyp].G.F.S.P.L}|CHEM1{[O=C1CC([*:1])C(=O)N1CCCCCC(=O)[*:2]]}$PEPTIDE1,CHEM1,7:R3-1:R1|PEPTIDE2,CHEM1,2:R3-1:R2$$$V2.0; N-terminus and C-terminus assumed; bridges inferred)	7.4 ± 0.1	6.5 ± 0.1	
CC(C)C[C@H](NC(=O)[C@@H](Cc1ccccc1)NC(=O)[C@H](CSC1CC(=O)N(CCCCCCN2C(=O)CC(SC[C@H](NC(=O)[C@H](Cc3ccccc3)NC(=O)CNC(=O)[C@@H]3C[C@@H](O)CN3C(=O)[C@@H]3CCCN3C(=O)[C@H](CCCNC(=N)N)NC(=O)[C@H](N)CCCNC(=N)N)C(=O)N[C@H](Cc3ccccc3)C(=O)N[C@@H](CC(C)C)C(=O)N[C@@H](CCCNC(=N)N)C(=O)O)C2=O)C1=O)NC(=O)[C@H](Cc1ccccc1)NC(=O)CNC(=O)[C@@H]1C[C@@H](O)CN1C(=O)[C@@H]1CCCN1C(=O)[C@H](CCCNC(=N)N)NC(=O)[C@H](N)CCCNC(=N)N)C(=O)O (stereo partly shown) [CP-0273] (HELM PEPTIDE1{[dR].R.P.[Hyp].G.F.C.[dF].L.R}|PEPTIDE2{[dR].R.P.[Hyp].G.F.C.[dF].L}|CHEM1{[O=C1CC([*:1])C(=O)N1CCCCCCN1C(=O)CC([*:2])C1=O]}$PEPTIDE1,CHEM1,7:R3-1:R1|PEPTIDE2,CHEM1,7:R3-1:R2$$$V2.0; N-terminus and C-terminus assumed)			Kb (BK2 -receptor; read-out: pA2 rat uterus (BK2) (converted)): 6.31 nM; IC50 (BK1 receptor [1]): 2000 nM
